Assay results published in patent US12173088B2, “Anti-microbial peptides” (priority 2018, dated 2024).
Converted amounts (≈) assume the structure as drawn. Like-named read-outs stand apart in the source and are kept apart here. Peptide text beside a SMILES is read from it.

Legend:
[1] = system: S. aureus M838-17 (MRSA); experiment: microbe, parasite or virus in culture; type: cell-based, Staphylococcus aureus; conditions: for MIC: read-out: MIC S. aureus M838-17 (MRSA)
Summary of the method: (§1)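 Peptides were serially diluted two-fold against bacteria grown in tryptic soy broth to log phase (OD600 ≈0.5), then seeded at OD600 0.001. Plates were held overnight at 37° C and read at 630 nm. USA300 was also tested at pH 6.8, 7.2 and 8.0, with 150 mM NaCl or 5-10% serum, plasma or peritoneal fluid.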

[2] = system: S. aureus USA300; experiment: microbe, parasite or virus in culture; type: cell-based, Staphylococcus aureus
Summary of the method: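 Broth microdilution: log-phase cultures in tryptic soy broth diluted to OD600 0.001, exposed to two-fold diluted peptides at 37° C overnight, growth read at 630 nm. Medium effects on S. aureus USA300 tested with up to 200 mM NaCl, 2 mM CaCl2, 5-10% human serum, mouse plasma, fluids or tissue homogenate supernatants.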

[3] = system: E. faecium V286-17 (VRE); experiment: microbe, parasite or virus in culture; type: cell-based, Enterococcus faecium
Summary of the method: as §1

[4] = system: P. aeruginosa E411-17; experiment: microbe, parasite or virus in culture; type: cell-based, Pseudomonas aeruginosa
Summary of the method: as §1

[5] = system: K. pneumoniae E406-17; experiment: microbe, parasite or virus in culture; type: cell-based, Klebsiella pneumoniae
Summary of the method: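 Broth microdilution in tryptic soy broth: log-phase cultures (OD600 ≈0.5) diluted to OD600 0.001, given two-fold peptide dilutions, incubated overnight at 37° C. Growth read at 630 nm.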

[6] = system: E. coli E423-17; experiment: microbe, parasite or virus in culture; type: cell-based, Escherichia coli
Summary of the method: as §1

[7] = In vivo toxicity after i.p. injection; design: species or system mice; conditions: for Animal death: 10, 20, and 30 mg/kg i.p., five-day experiment; for Mobility: higher peptide doses
Method: Because DFT561 had crossed multiple in vitro barriers (Table 5), its in vivo toxicity and efficacy was tested. A well-established neutropenic mouse model was used, which is often utilized to evaluate the efficacy of antibiotics and peptide mimics (Ambrose, et al. (2012) Clin. Infect. Dis., 54(3):S220-8; Radzishevsky, et al. (2007) Nat. Biotechnol., 25:657-659). In this model, the effect of immune cells on bacterial killing is minimized via two injections of cyclophosphamide before infection (FIG. 5). To evaluate the safety of the peptide in vivo, the toxicity of DFT561 injected intraperitoneally (i.p.) was compared at […] per mouse. […] In addition, alanine transaminase normally resides in serum and tissues but can be released after liver injury. Differences in a quantitative alanine transaminase assay of liver homogenates from mice treated at 0, 10, and 20 mg/kg was not observed.
Neutropenic mice are widely accepted for systemic efficacy evaluation of antibiotics (Zhao, et al. (2016) Bioorg. Med. Chem. 24:6390-6400; Craig, et al. (1991) J. Antimicrob. Chemother., 27:29-40). This model enables better evaluation of compound potency by minimizing the bacterial clearance effect of the immune system. Using this model, the efficacy of horine against S. aureus USA300 and verine against K. pneumonia E406-17 was tested. C57BL/6 mice were made neutropenic by two injections of cyclophosphamide intraperitoneally (i.p.). The acute toxicity of horine and verine was investigated by i.p. injecting them into mice at 10, 20, and 30 mg/kg body weight.

[8] = system: A. baumannii B26-16; experiment: microbe, parasite or virus in culture; type: cell-based, Acinetobacter baumannii
Summary of the method: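 Broth microdilution in tryptic soy broth: log-phase cultures diluted to 0.001 OD600 and exposed to peptide dilutions overnight at 37 °C, growth read at 630 nm. For S. aureus USA300, medium effects tested at pH 6.8, 7.2 and 8.0, with 150 mM NaCl, or with 5–10% human serum, mouse plasma or peritoneal fluid.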

[9] = E411-17, read-out: MIC P. aeruginosa E411-17
[10] = E406-17, read-out: MIC K. pneumoniae E406-17
[11] = E423-17, read-out: MIC E. coli E423-17

With CC(C)C[C@H](NC(=O)[C@H](CC(C)C)NC(=O)[C@H](CCCCN)NC(=O)[C@H](CC(C)C)NC(=O)CNC(=O)[C@H](CC(C)C)NC(=O)[C@H](CO)NC(=O)[C@H](CC(C)C)NC(=O)[C@H](CC(C)C)NC(=O)[C@H](CC(C)C)NC(=O)[C@H](CCCCN)NC(=O)[C@H](CC(C)C)NC(=O)CN)C(N)=O [DFT561, GLKLLLSLGLKLL] (H-GLKLLLSLGLKLL-NH2; N-terminus and C-terminus assumed) the MIC ([1]; M838-17) was 3.1 µM (≈ 4.28 µg/mL), the MIC ([2]; USA300) was 1.6 µM (≈ 2.21 µg/mL) and the “MIC SA (S. aureus USA300)” value ([2]; USA300) was 1.6 µM (≈ 2.21 µg/mL). For the same molecule, the MIC ([2]; USA300, pH 6.8) was 3.1 µM (≈ 4.28 µg/mL), the MIC ([2]; USA300, pH 7.4) was 1.6 µM (≈ 2.21 µg/mL) and the MIC ([2]; USA300, pH 8) was 1.6 µM (≈ 2.21 µg/mL). The “MIC E. faecium V286-17 (VRE)” value ([3]; V286-17 (VRE)) was 3.1 to 6.25 µM, the MIC [4, 9] was over 50 µM and the MIC [5, 10] was over 50 µM. The MIC [6, 11] was over 50 µM, the “Differences in alanine transaminase assay of liver homogenates” value ([7]; 0, 10, and 20 mg/kg) was “not observed” and the “Toxicity (conclusion)” value ([7]; 5 mg/kg) was “not toxic”. The Behaviour of mice ([7]; 10 mg/kg i.p.) was “behaved normal”, the Weight losses ([7]; 10, 20, 40 mg/kg i.p.) was “statistically insignificant” and the Behaviour of mice ([7]; 20 or 40 mg/kg i.p.) was “reduced activity for 30 minutes”.

CC(C)C[C@H](NC(=O)[C@H](Cc1c[nH]c2ccccc12)NC(=O)[C@H](Cc1c[nH]c2ccccc12)NC(=O)[C@@H](N)Cc1c[nH]c2ccccc12)C(=O)N[C@@H](CCCNC(=N)N)C(=O)N[C@@H](CCCNC(=N)N)C(=O)N[C@@H](CCCNC(=N)N)C(=O)N[C@@H](Cc1c[nH]c2ccccc12)C(N)=O [Horine, WWWLRRRW] (H-WWWLRRRW-NH2; N-terminus and C-terminus assumed) showed an MIC ([2]; USA300, read-out: MIC S. aureus USA300 (MRSA)) of 4 µM (≈ 5.37 µg/mL), an MIC ([3]; V286-17 (VRE), read-out: MIC E. faecium V286-17 (VRE)) of 2 µM (≈ 2.69 µg/mL) and an MIC [4, 9] of over 32 µM. It also gave an MIC [5, 10] of over 32 µM, an MIC [6, 11] of over 32 µM and an MIC ([8]; B26-16, read-out: MIC A. baumannii B26-16) of 32 µM (≈ 43 µg/mL). For the same molecule, the Animal death [7] was “no animal death” and the Mobility [7] was “initial short-term reduced mobility”.

Work on CN[C@H](CC(C)C)C(=O)N[C@H]1C(=O)N[C@@H](CC(N)=O)C(=O)N[C@H]2C(=O)N[C@H]3C(=O)N[C@H](C(=O)N[C@H](C(=O)O)c4cc(O)cc(O)c4-c4cc3ccc4O)[C@H](O)c3ccc(c(Cl)c3)Oc3cc2cc(c3O[C@@H]2O[C@H](CO)[C@@H](O)[C@H](O)[C@H]2O[C@H]2C[C@](C)(N)[C@H](O)[C@H](C)O2)Oc2ccc(cc2Cl)[C@H]1O [Vancomycin] yielded an MIC ([1]; Staphylococcus aureus, MRSA) of 0.78 µM (≈ 1.13 µg/mL), an MIC ([2]; Staphylococcus aureus, MRSA / USA300, read-out: MIC S. aureus USA300 (MRSA)) of 1 µM (≈ 1.45 µg/mL) and an MIC ([3]; Enterococcus faecium, VRE, read-out: MIC E. faecium V286-17 (VRE), Table 7) of at least 12.5 µM. It also gave an MIC ([3]; Enterococcus faecium, VRE, read-out: MIC E. faecium V286-17 (VRE), Table 14) of over 8 µM, an MIC ([4]; Pseudomonas aeruginosa, E41117, read-out: MIC P. aeruginosa E411-17) of over 8 µM and an MIC ([5]; Klebsiella pneumoniae, E40617, read-out: MIC K. pneumoniae E406-17) of over 8 µM. The MIC ([6]; Escherichia coli, E42317, read-out: MIC E. coli E423-17) was over 8 µM and the MIC ([8]; Acinetobacter baumannii, B2616, read-out: MIC A. baumannii B26-16) was over 8 µM.

For CC(C)[C@H](NC(=O)[C@H](Cc1c[nH]c2ccccc12)NC(=O)[C@H](Cc1c[nH]c2ccccc12)NC(=O)[C@H](Cc1c[nH]c2ccccc12)NC(=O)[C@H](Cc1c[nH]c2ccccc12)NC(=O)[C@H](CCCNC(=N)N)NC(=O)[C@H](CCCNC(=N)N)NC(=O)[C@@H](N)CCCNC(=N)N)C(N)=O [Verine, RRRWWWWV] (H-RRRWWWWV-NH2; N-terminus and C-terminus assumed), the “MIC S. aureus M838-17” value ([1]; Table 12) was 3.1 µM (≈ 4.12 µg/mL), the “MIC S. aureus USA300 (MRSA)” value ([2]; Table 14) was 2 to 4 µM and the MIC ([2]; Table 17, strain USA300) was 2 to 4 µM. The MIC ([3]; Table 14, read-out: MIC E. faecium V286-17 (VRE)) was 2 µM (≈ 2.66 µg/mL), the “MIC P. aeruginosa 411-17” value ([4]; Table 12) was 12.5 µM (≈ 16.6 µg/mL) and the “MIC P. aeruginosa E411-17” value ([4]; Table 14) was 4 to 8 µM. For the same molecule, the “MIC K. pneumonia 406-17” value ([5]; Table 12) was 6.25 µM (≈ 8.31 µg/mL), the MIC ([5]; Table 14, read-out: MIC K. pneumoniae E406-17) was 8 µM (≈ 10.6 µg/mL) and the MIC ([6]; Table 14, read-out: MIC E. coli E423-17) was 2 µM (≈ 2.66 µg/mL). The MIC ([8]; Table 14, read-out: MIC A. baumannii B26-16) was 8 µM (≈ 10.6 µg/mL), the Animal death [7] was “no animal death” and the Mobility [7] was “initial short-term reduced mobility”.
